{"source": "patent US9889147B2", "about": "(CELLACT PHARMA GMBH, priority 2010, dated 2018)", "key": {"topoisomerase II α": {"test_system": "topoisomerase II α", "test": "Topoisomerase II alpha mRNA expression in U937 cells (PCR)", "type": "cell-based", "details": "24 h", "description": "(§1) One of the controls involved the treatment of the cells with 0.05% (1 μl) DMSO. Untreated cells are also shown as a control.\n(§2) After an incubation time of 24 h, expression was analysed by determining mRNA levels by real-time PCR. In the respective lanes of FIG. 2, the bands for topoisomerase II α (322 bp), topoisomerase II β (304 bp) and the GAPDH control (358 bp) are shown. In the H2O control lane, showing the results of the H2O control sample, no bands were observed."}, "topoisomerase II β": {"test_system": "topoisomerase II β", "test": "Topoisomerase II beta mRNA expression in U937 cells (PCR)", "type": "cell-based", "details": "10^4 mol/l, 24 h", "description": "as §1, §2"}, "[1]": {"molecular_target": "T1, MDR-1 gene product (P-glycoprotein) (Homo sapiens, UniProt P08183)", "T1 construct": "endogenous in cells; host or cells: Kelly", "T1 sequence (P08183 whole entry)": "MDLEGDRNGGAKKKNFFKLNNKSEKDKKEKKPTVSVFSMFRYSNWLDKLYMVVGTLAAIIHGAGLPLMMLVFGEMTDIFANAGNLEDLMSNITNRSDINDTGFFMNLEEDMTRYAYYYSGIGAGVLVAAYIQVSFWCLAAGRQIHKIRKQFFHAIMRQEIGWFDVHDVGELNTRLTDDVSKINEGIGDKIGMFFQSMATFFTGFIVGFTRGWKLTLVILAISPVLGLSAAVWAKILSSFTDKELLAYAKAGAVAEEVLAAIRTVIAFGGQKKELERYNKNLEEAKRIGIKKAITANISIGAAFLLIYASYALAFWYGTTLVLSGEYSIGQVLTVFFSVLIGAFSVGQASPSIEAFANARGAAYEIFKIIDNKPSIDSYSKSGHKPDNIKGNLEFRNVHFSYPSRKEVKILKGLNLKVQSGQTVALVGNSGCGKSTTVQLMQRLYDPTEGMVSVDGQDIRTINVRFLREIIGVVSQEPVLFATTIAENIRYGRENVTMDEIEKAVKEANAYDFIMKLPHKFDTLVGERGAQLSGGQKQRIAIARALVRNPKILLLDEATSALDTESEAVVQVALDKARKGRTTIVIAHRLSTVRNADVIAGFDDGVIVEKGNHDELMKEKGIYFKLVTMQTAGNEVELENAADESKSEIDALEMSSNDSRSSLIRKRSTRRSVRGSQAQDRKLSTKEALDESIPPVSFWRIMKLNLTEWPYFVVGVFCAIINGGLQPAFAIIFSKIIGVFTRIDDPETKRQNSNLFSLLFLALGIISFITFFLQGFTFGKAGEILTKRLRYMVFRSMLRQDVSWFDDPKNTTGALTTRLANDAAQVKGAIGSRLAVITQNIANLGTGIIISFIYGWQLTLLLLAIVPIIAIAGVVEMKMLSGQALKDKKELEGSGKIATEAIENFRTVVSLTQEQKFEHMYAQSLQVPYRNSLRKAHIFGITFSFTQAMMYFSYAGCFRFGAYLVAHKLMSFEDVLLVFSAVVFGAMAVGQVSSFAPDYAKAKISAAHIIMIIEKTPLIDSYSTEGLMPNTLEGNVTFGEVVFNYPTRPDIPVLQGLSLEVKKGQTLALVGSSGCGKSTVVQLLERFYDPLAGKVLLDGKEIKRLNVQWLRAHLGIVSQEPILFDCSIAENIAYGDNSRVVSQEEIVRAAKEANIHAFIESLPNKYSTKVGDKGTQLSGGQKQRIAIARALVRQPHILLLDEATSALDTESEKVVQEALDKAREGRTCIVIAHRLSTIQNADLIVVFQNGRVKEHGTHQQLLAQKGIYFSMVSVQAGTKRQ", "test": "Functional MDR-1 assay with JC-1 in Kelly cells (flow cytometry)", "type": "cell-based", "description": "By means of an assay using JC-1, MDR-1 activity was assessed in Kelly cells, which express MDR-1. JC-1 is a cationic staining dye which is taken up by living cells. JC-1 is recognized by the MDR-1 gene product (P-glycoprotein) and pumped to the outside of the cell (substrate efflux). Thus, MDR-1 activity is indicated by a reduction in intracellular JC-1 signal.\nKelly cells grown in RPMI medium were washed and resuspended at a concentration of 10^6 cells/ml in solutions containing JC-1 in a final concentration of 50 nmol/l. […] The control contained 1 μl (0.05%) DMSO. Cells were analysed for JC-1 staining in a FACScanto II flow cytometer."}, "U937 cells": {"test_system": "U937 cells", "test": "Cell cycle analysis in multidrug-resistant U937 cells (propidium iodide)", "type": "cell-based", "details": "18 h, 24 h and 48 h, CAP7.1, etoposide 10^−4 mol/l", "description": "The cells were incubated for 48 h. After 18 h, 24 h and 48 h of incubation, respectively, cell cycle analysis was performed as follows:\nCells were washed once with CellWash, fixed with fridge-cold 70% Ethanol for 30 min at 4° C. and washed three times. RNA was digested with RNAse A (100 μg/ml in PBS) for 10 min at room temperature. Cells were washed once with CellWash and stained with propidium iodide (50 μg/ml in PBS) for 5 min at room temperature in the dark. Cells were analyzed immediately by flow cytometry using a FACScanto II apparatus."}, "P-glycoprotein": {"molecular_target": "P-glycoprotein (Homo sapiens, UniProt P08183)", "sequence (P08183 whole entry)": "as above", "test": "P-glycoprotein substrate behaviour", "type": "cell-based"}, "Animal toxicity profile": {"test": "Animal toxicity profile", "details": "animals"}}, "data": [{"smiles": "COc1cc([C@@H]2c3cc4c(cc3[C@@H](O[C@@H]3O[C@@H]5CO[C@@H](C)O[C@H]5[C@H](O)[C@H]3O)[C@H]3COC(=O)[C@H]23)OCO4)cc(OC)c1O", "note": "[etoposide, reference compound]", "values": [{"measurement": "expression of topoisomerase II α (mRNA)", "setting": "topoisomerase II α", "result": "significant decrease"}, {"measurement": "expression of topoisomerase II β (mRNA)", "setting": "topoisomerase II β", "result": "significant decrease"}, {"measurement": "intracellular JC-1 signal versus DMSO control (MDR-1-mediated substrate efflux)", "setting": "[1]; Kelly cells, 10^−4 mol/l, 15 min", "result": "identical"}, {"measurement": "effect on the MDR-1 gene product P-glycoprotein", "setting": "[1]; general statement", "result": "ineffective on P-glycoprotein"}, {"measurement": "fraction of cells in G2 phase with increasing incubation times", "setting": "U937 cells", "result": "reduction"}, {"measurement": "substrate for P-glycoprotein / efflux from cells", "setting": "P-glycoprotein", "result": "pumped out of the cells"}, {"measurement": "weight loss", "setting": "Animal toxicity profile", "result": "significant weight loss"}]}]}
